The results in this text go back to ChEMBL document CHEMBL4725307, “Topical 'dual-soft' glucocorticoid receptor agonist for dermatology” (Bioorg Med Chem Lett, 2020).

For orientation: half-life means the time needed for the level to fall by half in the phase considered. Broadly, the IC50 is the concentration that inhibits the measured activity by half.

A short description of series [1]: Half life in human whole blood. Type of series: ADME, tissue-based.
The next series addresses T1, Glucocorticoid receptor (Homo sapiens, UniProt P04150).
T1 sequence (P04150 whole entry): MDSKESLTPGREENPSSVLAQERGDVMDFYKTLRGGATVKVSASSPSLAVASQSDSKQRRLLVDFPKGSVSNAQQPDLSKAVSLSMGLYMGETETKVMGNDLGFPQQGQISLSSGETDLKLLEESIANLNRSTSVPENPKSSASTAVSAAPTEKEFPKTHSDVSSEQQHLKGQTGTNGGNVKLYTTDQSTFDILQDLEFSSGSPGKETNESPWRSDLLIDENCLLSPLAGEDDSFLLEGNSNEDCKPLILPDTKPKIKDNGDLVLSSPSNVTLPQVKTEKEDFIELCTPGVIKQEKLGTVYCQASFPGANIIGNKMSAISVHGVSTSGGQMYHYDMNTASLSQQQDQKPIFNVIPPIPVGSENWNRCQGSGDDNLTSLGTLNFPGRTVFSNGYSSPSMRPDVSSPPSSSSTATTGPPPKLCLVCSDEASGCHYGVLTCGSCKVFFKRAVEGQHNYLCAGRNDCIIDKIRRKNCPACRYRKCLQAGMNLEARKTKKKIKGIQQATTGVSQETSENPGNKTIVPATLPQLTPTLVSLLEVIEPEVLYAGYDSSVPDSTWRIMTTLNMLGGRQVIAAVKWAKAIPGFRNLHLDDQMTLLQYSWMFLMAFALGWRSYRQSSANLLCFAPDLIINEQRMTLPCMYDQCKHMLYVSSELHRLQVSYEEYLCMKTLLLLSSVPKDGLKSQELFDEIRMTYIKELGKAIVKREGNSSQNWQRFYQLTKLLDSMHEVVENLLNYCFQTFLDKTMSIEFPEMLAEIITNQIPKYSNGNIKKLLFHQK
Put plainly: Agonist activity at human glucocorticoid receptor in PBMC assessed as inhibition of LPS-induced TNFalpha release. Type of series: tissue-based.

Series [2] can be described thus: Half life in cultured human keratinocytes. Type of series: ADME, cell-based, Keratinocyte.
The target of series [3] is T2, Glucocorticoid receptor (Homo sapiens) (UniProt P04150).
T2 sequence (whole entry): T1 sequence (P04150 whole entry)
Briefly: Agonist activity at human glucocorticoid receptor assessed as inhibition of LPS-induced TNFalpha release in PBMC relative to control. Type of series: tissue-based.

A short description of series [4]: Drug metabolism in dog whole blood assessed as (3R)-3-(hydroxymethyl)-4-oxo-4-[(3S)-3-[[5-[(1R,2S)-1-(p-tolyl)-2-[(2,2,2-trifluoroacetyl)amino]propoxy]pyridine-2-carbonyl]amino]-1-piperidyl]butanoic acid metabolite formation. Type of series: ADME, tissue-based, Canis lupus familiaris.
Series [5] in a line: Drug metabolism in human whole blood assessed as (3R)-3-(hydroxymethyl)-4-oxo-4-[(3S)-3-[[5-[(1R,2S)-1-(p-tolyl)-2-[(2,2,2-trifluoroacetyl)amino]propoxy]pyridine-2-carbonyl]amino]-1-piperidyl]butanoic acid metabolite formation. Type of series: ADME, tissue-based.
Series [6] in a line: Drug metabolism in dog hepatocytes assessed as (3R)-3-(hydroxymethyl)-4-oxo-4-[(3S)-3-[[5-[(1R,2S)-1-(p-tolyl)-2-[(2,2,2-trifluoroacetyl)amino]propoxy]pyridine-2-carbonyl]amino]-1-piperidyl]butanoic acid metabolite formation. Type of series: ADME, cell-based, Canis lupus familiaris, Hepatocyte.
A short description of series [7]: Chemical stability assessed as parent compound remaining at pH 7 and 37 degreeC measured after 16 hrs. Type of series: physicochemical. To be noted: buffer, read-out: Stabilty.
Series [8] is described as follows: Photostability of the compound. Type of series: physicochemical.
Series [9] is described as follows: Drug metabolism in human hepatocytes assessed as (3R)-3-(hydroxymethyl)-4-oxo-4-[(3S)-3-[[5-[(1R,2S)-1-(p-tolyl)-2-[(2,2,2-trifluoroacetyl)amino]propoxy]pyridine-2-carbonyl]amino]-1-piperidyl]butanoic acid metabolite formation. Type of series: ADME, cell-based, Hepatocyte.
Series [10] in a line: Drug metabolism in pig whole blood assessed as (3R)-3-(hydroxymethyl)-4-oxo-4-[(3S)-3-[[5-[(1R,2S)-1-(p-tolyl)-2-[(2,2,2-trifluoroacetyl)amino]propoxy]pyridine-2-carbonyl]amino]-1-piperidyl]butanoic acid metabolite formation. Type of series: ADME, tissue-based, Sus scrofa.
Series [11] in a line: Chemical stability assessed as parent compound remaining at pH 5.5 and 37 degreeC measured after 16 hrs. Type of series: physicochemical. To be noted: buffer, read-out: Stabilty.
A short description of series [12]: Drug metabolism in rat whole blood assessed as (3R)-3-(hydroxymethyl)-4-oxo-4-[(3S)-3-[[5-[(1R,2S)-1-(p-tolyl)-2-[(2,2,2-trifluoroacetyl)amino]propoxy]pyridine-2-carbonyl]amino]-1-piperidyl]butanoic acid metabolite formation. Type of series: ADME, tissue-based.
A short description of series [13]: Drug metabolism in pig hepatocytes assessed as (3R)-3-(hydroxymethyl)-4-oxo-4-[(3S)-3-[[5-[(1R,2S)-1-(p-tolyl)-2-[(2,2,2-trifluoroacetyl)amino]propoxy]pyridine-2-carbonyl]amino]-1-piperidyl]butanoic acid metabolite formation. Type of series: ADME, cell-based, Sus scrofa, Hepatocyte.
Series [14] can be described thus: Drug metabolism in rat hepatocytes assessed as (3R)-3-(hydroxymethyl)-4-oxo-4-[(3S)-3-[[5-[(1R,2S)-1-(p-tolyl)-2-[(2,2,2-trifluoroacetyl)amino]propoxy]pyridine-2-carbonyl]amino]-1-piperidyl]butanoic acid metabolite formation. Type of series: ADME, cell-based, Hepatocyte.
In series [15] the target is Voltage-gated inwardly rectifying potassium channel KCNH2 (Homo sapiens, UniProt Q12809). Briefly: Inhibition of human ERG.
The subject of a further series is Cytochrome P450. Put plainly: Inhibition of CYP450 (unknown origin). Type of series: protein assay. To be noted: human.
Series [16] is filed under the species Homo sapiens. Briefly: Selectivity ratio for agonist activity at progesterone receptor (unknown origin) to agonist activity at glucocorticoid receptor (unknown origin).
For series [17], the species on record is Homo sapiens. Put plainly: Selectivity ratio for agonist activity at mineralocorticoid receptor (unknown origin) to agonist activity at glucocorticoid receptor (unknown origin).
A short description of series [18]: Hepatic clearance in iv dosed rat. Type of series: ADME, organism-based. Conditions: in vivo.
Series [19] is filed under the species Homo sapiens. Briefly: Selectivity ratio for agonist activity at androgen receptor (unknown origin) to agonist activity at glucocorticoid receptor (unknown origin).

Chain of Voltage-gated inwardly rectifying potassium channel KCNH2 (Q12809 whole entry): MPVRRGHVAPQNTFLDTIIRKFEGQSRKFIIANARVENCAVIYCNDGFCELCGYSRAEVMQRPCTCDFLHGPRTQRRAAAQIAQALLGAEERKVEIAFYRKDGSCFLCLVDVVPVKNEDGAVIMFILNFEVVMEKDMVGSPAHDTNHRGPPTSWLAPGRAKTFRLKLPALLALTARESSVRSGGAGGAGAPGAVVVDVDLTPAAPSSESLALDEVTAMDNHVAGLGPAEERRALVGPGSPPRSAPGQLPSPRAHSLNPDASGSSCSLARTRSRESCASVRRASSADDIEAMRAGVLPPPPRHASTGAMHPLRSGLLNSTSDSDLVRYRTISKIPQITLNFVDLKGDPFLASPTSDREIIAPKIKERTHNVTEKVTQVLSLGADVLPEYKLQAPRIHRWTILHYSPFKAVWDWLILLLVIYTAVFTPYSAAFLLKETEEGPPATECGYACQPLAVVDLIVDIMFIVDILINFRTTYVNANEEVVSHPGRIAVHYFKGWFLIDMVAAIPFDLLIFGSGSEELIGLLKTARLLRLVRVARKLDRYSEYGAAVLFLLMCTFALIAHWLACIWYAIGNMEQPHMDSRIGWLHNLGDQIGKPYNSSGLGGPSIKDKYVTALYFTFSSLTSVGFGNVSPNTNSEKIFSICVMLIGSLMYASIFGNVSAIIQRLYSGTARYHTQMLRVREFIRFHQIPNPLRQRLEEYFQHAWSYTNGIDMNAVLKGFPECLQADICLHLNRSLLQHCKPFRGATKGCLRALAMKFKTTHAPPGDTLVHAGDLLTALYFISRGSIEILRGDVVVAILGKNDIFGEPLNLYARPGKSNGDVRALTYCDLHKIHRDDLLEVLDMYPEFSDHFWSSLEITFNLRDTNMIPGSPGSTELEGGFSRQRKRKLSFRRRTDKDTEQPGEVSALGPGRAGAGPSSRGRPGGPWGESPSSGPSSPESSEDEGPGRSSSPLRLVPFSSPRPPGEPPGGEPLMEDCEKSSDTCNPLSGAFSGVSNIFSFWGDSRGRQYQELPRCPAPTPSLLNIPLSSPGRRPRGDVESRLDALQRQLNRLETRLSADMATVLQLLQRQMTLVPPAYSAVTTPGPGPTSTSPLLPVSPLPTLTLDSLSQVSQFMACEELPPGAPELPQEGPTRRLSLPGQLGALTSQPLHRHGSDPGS

Compound `Cc1ccc([C@@H](Oc2ccc(C(=O)N[C@H]3CCCN(C(=O)[C@@H]4CCC(=O)O4)C3)nc2)[C@H](C)NC(=O)C(F)(F)F)cc1` gave a half-life in series [1] of 1.38 h.
On to `Cc1ccc([C@@H](Oc2ccc3c(cnn3-c3ccc(F)cc3)c2)[C@H](C)NC(=O)C(F)(F)F)cc1`, for which the IC50 on Glucocorticoid receptor turned out to be 2 nM.
As for `Cc1ccc([C@@H](Oc2ccc(C(=O)N[C@H]3CCCN(C(=O)[C@@H]4COC(=O)C4)C3)nc2)[C@H](C)NC(=O)C(F)(F)F)cc1`, the half-life in series [2] was more than 6 h; in series [1], 1.7 h.
As for `C[C@H](NC(=O)[C@H]1CCCO1)[C@H](Oc1ccc(C(=O)O[C@H]2CCCN(C(=O)[C@@H](CO)CC(=O)O)C2)cc1)c1ccc(C2CC2)cc1`, the fold change (FC) in series [3] is more than 100.
In the case of `Cc1ccc([C@@H](Oc2ccc(C(=O)N[C@H]3CCCN(C(=O)[C@H]4COC(=O)C4)C3)cc2)[C@H](C)NC(=O)C(F)(F)F)cc1`, at Glucocorticoid receptor, the IC50 stood at 79 nM.
As to `Cc1ccc([C@@H](Oc2ccc(C(=O)N[C@@H]3CCCN(C(=O)[C@@H]4CCC(=O)O4)C3)nc2)[C@H](C)NC(=O)C(F)(F)F)cc1`, in [1], the half-life stood at 0.733 h.
Take `Cc1ccc([C@@H](Oc2ccc(C(=O)N[C@H]3CCCN(C(=O)[C@H]4COC(=O)C4)C3)nc2)[C@H](C)NC(=O)C(F)(F)F)cc1`: the half-life in series [2] was more than 6 h; in series [1], less than 0.167 h. The Drug metabolism result in [4], in series [5], in series [6], in series [9], in series [10] and in [12] was “Metabolite_Detected” throughout. Moreover, the Drug metabolism result in series [13] and in series [14] was “Metabolite_Detected” throughout. Moreover, the figures for the remaining at 16 h in series [7] and in series [11] were 82% and more than 95%, respectively. Moreover, the Stabilty result in series [8] was “Stable”.
Turning to `C[C@H](NC(=O)[C@@H]1CCCO1)[C@H](Oc1ccc(C(=O)O[C@H]2CCCN(C(=O)[C@H]3COC(=O)C3)C2)cc1)c1ccc(C2CC2)cc1`, on Glucocorticoid receptor, the IC50 was found to be 22 nM.
As to `Cc1ccc([C@@H](Oc2ccc(C(=O)Nc3ccccc3)nc2)[C@H](C)NC(=O)C(F)(F)F)cc1`, the IC50 at Glucocorticoid receptor is 26 nM.
With `C[C@H](NC(=O)[C@H]1CCCO1)[C@H](Oc1ccc(C(=O)O[C@H]2CCCN(C(=O)[C@H]3COC(=O)C3)C2)cc1)c1ccc(C2CC2)cc1`, the IC50 on Glucocorticoid receptor was 2 nM. Further, the “inhibition (INH)” value (in series [15]; in the series with Cytochrome P450) was “Not Active” in each case. For the same compound, the Selectivity ratio in the series filed under Homo sapiens [16], in the series filed under Homo sapiens [17] and in the series listed under Homo sapiens [19] was more than 100 each time. The compound also had a CLH in [18] of 500 mL/min/kg.
`Cc1ccc([C@@H](Oc2ccc(C(=O)N[C@@H]3CCCN(C(=O)[C@H]4CCC(=O)O4)C3)nc2)[C@H](C)NC(=O)C(F)(F)F)cc1` had a half-life in [1] of 0.85 h.
The compound `Cc1ccc([C@@H](Oc2ccc(C(=O)N[C@@H]3CCCN(C(=O)[C@@H]4COC(=O)C4)C3)nc2)[C@H](C)NC(=O)C(F)(F)F)cc1` displayed a half-life in series [1] of 0.283 h.
On to `C[C@H](NC(=O)C(F)(F)F)[C@H](Oc1ccc(C(=O)O[C@H]2CCCN(C(=O)[C@H]3COC(=O)C3)C2)cc1)c1ccc(C2CC2)cc1`, for which, at Glucocorticoid receptor, the IC50 was determined as 1 nM.
With `Cc1ccc([C@@H](Oc2ccc(C(=O)N[C@H]3CCCN(C(=O)[C@H]4CCC(=O)O4)C3)nc2)[C@H](C)NC(=O)C(F)(F)F)cc1`, the half-life is more than 6 h in [2] and more than 2 h in series [1].
Regarding `Cc1ccc([C@@H](Oc2ccc(C(=O)N[C@@H]3CCCN(C(=O)[C@H]4COC(=O)C4)C3)nc2)[C@H](C)NC(=O)C(F)(F)F)cc1`, the half-life in [2] is more than 6 h; in [1], less than 0.167 h.
